In patent US6905852B1, “Herbicide-resistant protoporphyrinogen oxidase isolated from Nicotiana tabacum” (Nihon Nohyaku Co., Ltd., priority 1997, dated 2005):

Experiments:
[1] = tested on: non-transformed tobacco plant; assay: Leaf disk method, bleaching; type: cell-based, N. Tabacum var. SR1
Procedure: (§1) From the transformed plant with which the confirmation of introduction of gene was finished, and non-transformed plant used as a control, a leaf almost the same position of the leaf was picked and 9 mm diameter leaf disks were prepared, and floated on a dish in which 0, 125, 250, 1,250, 2,500, 5,000, 12,500 nM of compound A aqueous solution were contained. After incubation at 27° C. for one week under continuous strong light, the bleaching of the leaf disks was observed, and the permissive concentration to compound A was calculated. As a result (Table 7), in case that the tolerant type of protoporphirinogen oxidase cDNA from tobacco was introduced by pBI-NtPX-RC, more than 100 times of tolerance was observed comparing to the control non-transformed plant. However, in case that rsistant type cDNA from Arabidopsis thaliana was introduced by pBI-AtPX-RC, 4 times of resistance was observed comparing to the control, and in case that the wild type cDNA was introduced, high resistance was not observed in each case.

[2] = molecular target: T1, protoporphyrinogen oxidase extracted from the sensitive cell line (Nicotiana tabacum, UniProt O24163, A174P/A191P/T382S); assay: Protoporphyrinogen oxidase activity of crude enzyme preparation; type: biochemical
T1 construct: from tissue; host or cells: tobacco callus, herbicide-sensitive cell line; crude particulate fraction
Procedure: (§2) Using the same procedures described in Nicolaus, B. et al. (1993) in “Target Assay for Modern Herbicide and Related Phytotoxic Compound” Lewis Publishers, pp. 35-41, five volume of extraction buffer (50 mM Tris-HCl (pH 7.5), 0.5 M sucrose, 0.2% BSA, 1 mM EDTA) was added to callus which was cultured in MS solid medium for one month, and homogenized. After filtration with gauze, filtrate was centrifuged with 10,000×g at 4° C. for 5 minutes. Thus obtained precipitate was suspended with 25 ml of ethanol buffer, centrifuged with 150×g at 4° C. for 2 minutes. Thus obtained supernatant was centrifuged with 4,000×g at 4° C. for 15 minutes, and the precipitate was dissolved with 2 ml of 20% glycerol. The protein amount in the obtained crude enzyme preparation was measured with the protein measuring kit (manufactured by Bio-Rad Co., Ltd.).
(§3) The powder of sodium amalgam was prpared as follows. Into a round flask of 500 ml volume, 13 g of mercury and 0.5 g of thin-layer metal sodium were added, and equilibrated with nitrogen gas for 5 minutes, and it was shaked for 5 minutesthen. […] of protoporphyrin IX was dissolved into 10 mM KOH containing 15 ml of 20% ethanol, incubated at 4° C. To 4 ml of the protoporphyrin IX solution, equal amount of reaction mixture (0.1 M MES, 50 mM ascorbic acid) was added, and 16 mg of sodium amalgam freshly prepared was added, and shaken vigorously under nitrogen gas in a dark. The reaction mixture was filtered with a three-layer glass filter in a dark, and diluted 2.5 times with 0.1 M MES (pH4.5), and divided into 1 ml each in a light-shielded test tube and stored at −80° C.
(§4) 3 ml of reaction buffer (100 mM Tris-HCl (pH 7.6), 1 mM EDTA, 5 mM DTT, 0.03% Tween 80) were added to a cell of a fluorescence spectrophotometer, then, the crude enzyme prparation was added at the final concentration of 0.1 mg protein/ml, and it was heated gradually to room temperature. After heating, protoporphyrinogen IX was added at the final concentration of 2 μM, and the gaseous phase was replaced with nitrogen gas, and a reaction was started. Fluorescence was monitored with a spectrophotometer for 30 minutes starting 10 minutes after the start of the reaction, and enzyme activity was measured (Ex:405 nm,Em:631.5 nm).
(§5) Activity of protoporphyrinogen oxidase in crude enzyme preparation which was extracted from a sensitive tobacco and ETR-245 and the extent of inhibition by compound A were compared (Table 4). As a result, activity of the crude enzyme preparation derived from the sensitive strain was 2.39 units, and the activity of the crude enzyme liquid derived from ETR-245 strain was 2.85 units, and there was no large difference between the activities. […] Incidentally, since the reaction mixture became turbidat the concentration of more than 5,000 nM, it was impossible to measure the fluoroescence. From the above results, the resistant mechanism in ETR-245 to the photobleaching herbicide could be thought that the some mutations in the structure of the enzyme occurred, and was not over production of protoporphyrinogen oxidase which was a target enzyme of photobleaching herbicide.

[3] = molecular target: T2, protoporphyrinogen oxidase extracted from ETR-245 (Nicotiana tabacum, UniProt O24163, A231V); assay: as above; type: biochemical
T2 construct: from tissue; host or cells: tobacco callus, herbicide-tolerant cell line ETR-245; crude particulate fraction
Procedure: as §2, §3, §4, §5

[4] = tested on: transformed tobacco plant, Arabidopsis thaliana resistant type (pBI-AtPX-RC); assay: Leaf disk method, bleaching; type: cell-based, N. Tabacum var. SR1
Procedure: The A. tumefacience having the binary vector which had been stored at −80° C. was cultured with shaking at 27° C. for 24 hours in 523 liquid medium (1% sucrose, 0.8% Bacto-tryptone, 0.4% Bacto-yeast extract, 0.2% K2HPO4, 0.03% MgSO4.7H2O) containing kanamycin. A disk (9 mm diameter) of a tobacco (N. Tabacum var. SR1) leaf which had been surface sterilized was immersed for one minute into the culture of the A. tumefacience, and then the culture liquid attached thereon was removed with a sterilized paper towel. The leaf disk was transferred into MS agar medium containing 0.6% agar in which 2 ppm NAA and 0.2 ppm BA were added, with the reverse side of leaf being made upside, and incubated at 25° C. for 48 hours. The leaf disk was transferred into MS liquid medium containing 500 ppm carbenicillin, 200 ppm claforan, 2 ppm NAA and 0.2 ppm BA and cultured with shaking at 27° C. for 48-72 hours to remove A. tumefacience. The leaf disk was transferred into MS liquid medium containing 0.6% agar, 100 ppm of carbenycillin, 200 ppm of claforan and 150 ppm of kanamycin, 2 ppm NAA and 0.2 ppm BA and incubated at 27° C. for 2-3 weeks and formation of shoot was induced. The shoot was transferred into medium for root development (½ MS, 0.02 ppm IBA, 1.5% sucrose, 0.2% gellan gum) and development of root was introduced. The young plant thus obtained was transferred into culture soil, and was grown in a green house.
as §1

T2 sequence (O24163 51-548 A231V): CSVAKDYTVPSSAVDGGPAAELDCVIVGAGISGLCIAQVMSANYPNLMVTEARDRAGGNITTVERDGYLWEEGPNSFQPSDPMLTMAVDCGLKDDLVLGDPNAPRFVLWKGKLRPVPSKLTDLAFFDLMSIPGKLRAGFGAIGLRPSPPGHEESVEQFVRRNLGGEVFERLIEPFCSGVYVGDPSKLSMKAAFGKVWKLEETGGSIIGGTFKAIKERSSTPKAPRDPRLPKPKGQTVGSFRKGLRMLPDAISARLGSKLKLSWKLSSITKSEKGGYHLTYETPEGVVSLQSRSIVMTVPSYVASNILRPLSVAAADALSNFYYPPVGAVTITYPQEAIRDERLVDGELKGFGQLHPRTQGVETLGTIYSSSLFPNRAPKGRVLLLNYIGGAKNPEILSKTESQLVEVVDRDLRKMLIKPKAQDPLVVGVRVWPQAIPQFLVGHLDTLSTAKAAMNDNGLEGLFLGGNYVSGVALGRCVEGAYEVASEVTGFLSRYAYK
T1 sequence (O24163 51-548 A174P/A191P/T382S): as the sequence (O24163 51-548 A231V) above, with A124P, A141P, V181A, T332S counted along it

## CCOC(=O)COc1cc(-c2nn(C)c(OC(F)F)c2Cl)c(F)cc1Cl [Compound A, ethyl 2-chloro-5-(4-chloro-5-difluoromethoxy-1-methyl-1H-pyrazol-3-yl)-4-fluorophenoxyacetate]
[1]; Introduced gene: None (reference)
  Resistance: 1 X
[1]; Introduced gene: None, one week, continuous strong light
  Permission conc. to compound A: 125 nM
[2]
  IC50: 48 nM
[2]; Sensitive, 10 nM, 1 unit = 1 nM protoporphyrin IX/min/mg protein
  Enzyme activity(unit): 4.32 unit
[2]; Sensitive, 20 nM
  Enzyme activity(unit): 3.62 unit
[2]; Sensitive, 40 nM
  Enzyme activity(unit): 1.84 unit
[2]; Sensitive, 100 nM
  Enzyme activity(unit): 0.00 unit
[2]; Sensitive, 500 nM
  Enzyme activity(unit): 0.00 unit
[2]; Sensitive, 1,000 nM
  Enzyme activity(unit): 0.00 unit
[2]; Sensitive, 2,400 nM
  Enzyme activity(unit): 0.00 unit
[2]; Sensitive, 5,000 nM
  Enzyme activity(unit): 0.00 unit
[3]; ETR-245, 10 nM, 1 unit = 1 nM protoporphyrin IX/min/mg protein
  Enzyme activity(unit): 3.59 unit
[3]; ETR-245, 40 nM
  Enzyme activity(unit): 4.41 unit
[3]; ETR-245, 100 nM
  Enzyme activity(unit): 2.21 unit
[3]; ETR-245, 500 nM
  Enzyme activity(unit): 3.49 unit
[3]; ETR-245, 1,000 nM
  Enzyme activity(unit): 2.85 unit
[3]; ETR-245, 2,400 nM
  Enzyme activity(unit): 2.48 unit
[3]; ETR-245, 5,000 nM
  Enzyme activity(unit): 1.56 unit
[3]; IC50 value (nM), crude enzyme from ETR-245
  IC50: ≥ 5000 nM
[3]; ratio of IC50 values
  resistance at enzyme level (ETR-245 vs sensitive): more than 100 times
[4]; Arabidopsis thaliana resistant type (pBI-AtPX-RC)
  Permission conc. to compound A: 500 nM
[4]; Arabidopsis thaliana resistant type, vs non-transformed
  Resistance: 4 X
